From the supplement of paper PMC10307832

Legend:
Assay in all cases: relative viability (nuclei count vs DMSO), 5 days (fraction); higher = more cells survive
Venetoclax + Lapatinib = compound: CC1(C)CCC(CN2CCN(c3ccc(C(=O)NS(=O)(=O)c4ccc(NCC5CCOCC5)c([N+](=O)[O-])c4)c(Oc4cnc5[nH]ccc5c4)c3)CC2)=C(c2ccc(Cl)cc2)C1 [Venetoclax] + CS(=O)(=O)CCNCc1ccc(-c2ccc3ncnc(Nc4ccc(OCc5cccc(F)c5)c(Cl)c4)c3c2)o1 [Lapatinib] (partner 2 µM)
Summary of the method: (§1)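 For relative viability, nuclei counts in treated wells were divided by those in vehicle wells. Lung cancer cell lines had been pin-tool dosed in 1536-well plates the day after seeding and cultured for 5 days, then fixed and stained in one step (final 0.05% Triton X-100, 1% formaldehyde, 1 ug/ml Hoechst) and imaged at 4×. Doses were one drug alone or a fixed anchor-drug dose plus five library-drug doses (not always all listed) in √10 steps, and values are duplicate-plate medians.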

Selumetinib + Trametinib = compound: Cn1cnc2c(F)c(Nc3ccc(Br)cc3Cl)c(C(=O)NOCCO)cc21 [Selumetinib] + CC(=O)Nc1cccc(-n2c(=O)n(C3CC3)c(=O)c3c(Nc4ccc(I)cc4F)n(C)c(=O)c(C)c32)c1 [Trametinib] (partner 0.02 µM)
Summary of the method: as §1

Venetoclax + Trametinib = compound: CC1(C)CCC(CN2CCN(c3ccc(C(=O)NS(=O)(=O)c4ccc(NCC5CCOCC5)c([N+](=O)[O-])c4)c(Oc4cnc5[nH]ccc5c4)c3)CC2)=C(c2ccc(Cl)cc2)C1 [Venetoclax] + CC(=O)Nc1cccc(-n2c(=O)n(C3CC3)c(=O)c3c(Nc4ccc(I)cc4F)n(C)c(=O)c(C)c32)c1 [Trametinib] (partner 0.02 µM)
Summary of the method: as §1

Venetoclax + Pictilisib = compound: CC1(C)CCC(CN2CCN(c3ccc(C(=O)NS(=O)(=O)c4ccc(NCC5CCOCC5)c([N+](=O)[O-])c4)c(Oc4cnc5[nH]ccc5c4)c3)CC2)=C(c2ccc(Cl)cc2)C1 [Venetoclax] + CS(=O)(=O)N1CCN(Cc2cc3nc(-c4cccc5[nH]ncc45)nc(N4CCOCC4)c3s2)CC1 [Pictilisib] (partner 1 µM)
Summary of the method: as §1

Cell Line: UMC-11
- relative viability (Venetoclax + Lapatinib; first compound 0.01 µM): 0.828
- relative viability (Venetoclax + Lapatinib; first compound 0.03162 µM): 0.942
- relative viability (Venetoclax + Lapatinib; first compound 0.1 µM): 0.712
- relative viability (Venetoclax + Lapatinib; first compound 0.3162 µM): 0.928
- relative viability (Venetoclax + Lapatinib; first compound 1 µM): 0.912
- relative viability (Selumetinib + Trametinib; first compound 0.02 µM): 0.562
- relative viability (Selumetinib + Trametinib; first compound 0.06325 µM): 0.703
- relative viability (Selumetinib + Trametinib; first compound 0.2 µM): 0.879
- relative viability (Selumetinib + Trametinib; first compound 0.6325 µM): 0.812
- relative viability (Venetoclax + Trametinib; first compound 0.01 µM): 0.674
- relative viability (Venetoclax + Trametinib; first compound 0.03162 µM): 0.74
- relative viability (Venetoclax + Trametinib; first compound 0.1 µM): 0.713
- relative viability (Venetoclax + Trametinib; first compound 0.3162 µM): 0.664
- relative viability (Venetoclax + Trametinib; first compound 1 µM): 0.749
- relative viability (Venetoclax + Pictilisib; first compound 0.01 µM): 0.817
- relative viability (Venetoclax + Pictilisib; first compound 0.03162 µM): 0.985
- relative viability (Venetoclax + Pictilisib; first compound 0.1 µM): 0.747
- relative viability (Venetoclax + Pictilisib; first compound 0.3162 µM): 0.741
- relative viability (Venetoclax + Pictilisib; first compound 1 µM): 0.72
